This is an account of results in article PMC11448502, “Cryo-EM structures of the human P2X1 receptor reveal subtype-specific architecture and antagonism by supramolecular ligand-binding” (Nature Communications, 2024).

Residue numbers refer to the chain shown, from its start. “And” between values parts separate entries of the source, which are not always exact repeats. Identical values can stand only once.

Experiment [1] concerns the target T1, hP2X1 K136A (Homo sapiens, UniProt P51575, K136A).
T1 construct: hP2X1 mRNA that was made from linearized full-length wild-type or mutant pcDNA 3.1x; expressed in transfected cells; host or cells: Xenopus laevis oocytes (mRNA injection)
T1 sequence (P51575 1-399 K136A): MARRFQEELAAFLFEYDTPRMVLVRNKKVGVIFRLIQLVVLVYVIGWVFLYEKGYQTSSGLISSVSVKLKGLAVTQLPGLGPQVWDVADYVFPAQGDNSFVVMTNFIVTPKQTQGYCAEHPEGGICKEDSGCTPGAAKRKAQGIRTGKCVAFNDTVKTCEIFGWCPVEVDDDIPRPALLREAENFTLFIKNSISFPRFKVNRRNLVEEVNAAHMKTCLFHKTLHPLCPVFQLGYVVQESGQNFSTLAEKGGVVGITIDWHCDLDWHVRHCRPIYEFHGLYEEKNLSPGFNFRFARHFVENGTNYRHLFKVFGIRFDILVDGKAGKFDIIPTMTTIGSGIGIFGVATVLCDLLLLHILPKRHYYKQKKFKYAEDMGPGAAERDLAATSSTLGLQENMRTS
The experiment in a line: NF449 inhibition dose response (IC50), TEVC in oocytes. The experiment is classed as cell-based. The settings on record: for Normalized Current: hP2X1 K136A. Here is the method:
(§1) Oocytes were purchased defolliculated from Ecocyte Bioscience in Barth’s Solution (88 mM NaCl, 1 mM KCl, 0.82 mM MgSO4, 0.33 mM Ca(NO3)2, 0.41 mM CaCl2, 2.4 mM NaHCO3, 5 mM Tris-HCl) supplemented with penicillin (100 U/mL) and streptomycin (100 µg/mL). Xenopus laevis oocytes were then injected with 50 nL of 100 ng/μL hP2X1 mRNA that was made from linearized full-length wild-type or mutant pcDNA 3.1x according to the protocol provided in the mMessage mMachine kit (Invitrogen). Injected oocytes were allowed to express for ~20 hours at 18 °C before recording was performed.
(§2) Data acquisition was performed using the Oocyte Clamp OC-725C amplifier and pClamp 8.2 software. Buffers were applied using a gravity fed RSC-200 Rapid Solution Changer that flows at ~5 mL/min. All experiments use Sutter filamented glass 10 cm in length with an inner diameter of 0.69 mm and an outer diameter of 1.2 mm to impale oocytes and clamp the holding voltage at −60 mV. Experiments were recorded in buffer containing 10 mM HEPES (pH 7.4), 140 mM NaCl, 5 mM KCl, 2 mM CaCl2, 2 mM MgCl2, and 10 mM glucose.
(§3) To test a dilution series of an antagonist at discrete concentrations, 10 µM ATP (2 mM ATP for K309A only) was first applied to evoke an initial maximum current. The oocyte was then washed with buffer for one minute, followed by one minute application of an antagonist test-concentration, and concluded by co-application of the same test concentration with 10 µM ATP (2 mM ATP for K309A). The antagonized signal was then normalized against the initial ATP excitatory signal. Each test concentration was performed in triplicate across different oocytes. The data was then fit to a nonlinear regression named “[inhibitor] vs. response – Variable slope (four parameters)” in Prism 9 to produce a sigmoidal curve and afford an IC50 value. Each singular condition was used to generate an average which is reported plus or minus its standard deviation between three discrete trials.

Experiment [2] concerns the target T2, hP2X1 K136A/R139A (Homo sapiens, UniProt P51575, K136A/R139A).
T2 construct: hP2X1 mRNA that was made from linearized full-length wild-type or mutant pcDNA 3.1x; expressed in transfected cells; host or cells: Xenopus laevis oocytes (mRNA injection)
T2 sequence (P51575 1-399 K136A/R139A): T1 sequence (P51575 1-399 K136A) with R139A
Described as above. The experiment is classed as cell-based. To be noted: for Normalized Current: hP2X1 K136A/R139A. The procedure: as §1, §2, §3

Experiment [3] addresses T3, hP2X1 R292A (Homo sapiens, UniProt P51575, R292A).
T3 construct: hP2X1 mRNA that was made from linearized full-length wild-type or mutant pcDNA 3.1x; expressed in transfected cells; host or cells: Xenopus laevis oocytes (mRNA injection)
T3 sequence (P51575 1-399 R292A): T1 sequence (P51575 1-399 K136A) with A136K, R292A
The description is as above. Format: cell-based. The settings on record: for Normalized Current: hP2X1 R292A. The procedure: as §1, §2, §3

Experiment [4] relates to P2X1. Further details: method as in doi.org/10.1074/jbc.M114.592246. The settings on record: reviewer comment; ref doi.org/10.1074/jbc.M114.592246; cited from earlier work.

As for `O=C(Nc1cc(C(=O)Nc2ccc(S(=O)(=O)O)cc2S(=O)(=O)O)cc(C(=O)Nc2ccc(S(=O)(=O)O)cc2S(=O)(=O)O)c1)Nc1cc(C(=O)Nc2ccc(S(=O)(=O)O)cc2S(=O)(=O)O)cc(C(=O)Nc2ccc(S(=O)(=O)O)cc2S(=O)(=O)O)c1` [NF449, 4,4’,4”,4’’’-(carbonylbis(imino-5,1,3-benzenetriylbis(carbonylimino)))tetrakis-benzene-1,3-disulfonic acid], the “reduction in inhibitory potency (IC50) of NF449” value in experiment [1] (hP2X1 K136A vs wild-type) is 39 fold. In addition, the “Normalized Current” value was 1 in experiment [1] ([NF449] 1.600E-09 M); 0.205 and 0.1861 and 0.1104 in experiment [1] ([NF449] 2.000E-07 M); 0.9716 and 0.9527 and 0.8864 in experiment [1] ([NF449] 3.200E-10 M); 0.5079 and 0.4606 and 0.4322 in experiment [1] ([NF449] 4.000E-08 M); 0.7634 and 0.7445 and 0.5647 in experiment [1] ([NF449] 8.000E-09 M); 0.4929 and 0.4694 and 0.363 in experiment [2] ([NF449] 1.000E-06 M). The “Normalized Current” value in experiment [2] ([NF449] 2.000E-07 M) is 0.8009 and 0.7536 and 0.7046; in experiment [2] ([NF449] 4.000E-08 M), 1.069 and 1.018 and 0.8793; in experiment [2] ([NF449] 6.246E-06 M), 0.148 and 0.1446 and 0.1086; in experiment [2] ([NF449] 8.000E-09 M) it was 1.104 and 1.01 and 0.886; in experiment [3] ([NF449] 1.000E-06 M), 0.000000; in experiment [3] ([NF449] 1.600E-09 M) it was 1.038 and 1.012 and 0.9446. The “Normalized Current” value in experiment [3] ([NF449] 2.000E-07 M) is 0.09965 and 0.08304 and 0.07993; in experiment [3] ([NF449] 3.200E-10 M), 1.08 and 0.9654 and 0.955; in experiment [3] ([NF449] 4.000E-08 M), 0.4671 and 0.3945 and 0.2595; in experiment [3] ([NF449] 8.000E-09 M), 0.8305 and 0.7889 and 0.7059. The “decrease in inhibitory potency of NF449” value in experiment [2] (hP2X1 K136A/R139A vs wild-type) worked out at 990 fold. Also, in experiment [3] (hP2X1 R292A vs wild-type), the “reduction in inhibitory potency of NF449” value was 31 fold. Moreover, the Hill coefficient in experiment [4] is listed as ~ 1.4.
